Data as given in patent US20250136606A1, “MODULATORS OF TRPML, THEIR COMPOSITIONS AND METHODS OF USE” (Caraway Therapeutics, Inc., priority 2021, published 2025).

Tests used:
TRPML1 [1] = conditions: cited from earlier work
TRPML1 [2] = biological target: TRPML1 (Homo sapiens, UniProt Q9GZU1); assay: Fluorescent TRPML1 assay (Fluo4-AM calcium fluorescence in doxycycline-induced HEK-293 Trex cells); format: cell-based
Summary of the method: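 HEK-293 Trex cells stably expressing surface-directed mutant human TRPML1, induced with 0.5 µg/mL doxycycline overnight, were loaded with 1 µM Fluo4-AM and added to compound (6 nM–20 µM final, half-log steps, triplicate) in Ringer's with 10 mM calcium. Fluorescence ex 480/em 540; EC50 by non-linear regression versus plate controls.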

TRPML2 = biological target: T1, TRPML2 (Homo sapiens, UniProt Q8IZK6); assay: Fluorescent TRPML2 assay (performed as for TRPML1, substituting the TRPML2 subtype); format: cell-based
T1 construct: expressed in transfected cells
T1 sequence (Q8IZK6 1-566): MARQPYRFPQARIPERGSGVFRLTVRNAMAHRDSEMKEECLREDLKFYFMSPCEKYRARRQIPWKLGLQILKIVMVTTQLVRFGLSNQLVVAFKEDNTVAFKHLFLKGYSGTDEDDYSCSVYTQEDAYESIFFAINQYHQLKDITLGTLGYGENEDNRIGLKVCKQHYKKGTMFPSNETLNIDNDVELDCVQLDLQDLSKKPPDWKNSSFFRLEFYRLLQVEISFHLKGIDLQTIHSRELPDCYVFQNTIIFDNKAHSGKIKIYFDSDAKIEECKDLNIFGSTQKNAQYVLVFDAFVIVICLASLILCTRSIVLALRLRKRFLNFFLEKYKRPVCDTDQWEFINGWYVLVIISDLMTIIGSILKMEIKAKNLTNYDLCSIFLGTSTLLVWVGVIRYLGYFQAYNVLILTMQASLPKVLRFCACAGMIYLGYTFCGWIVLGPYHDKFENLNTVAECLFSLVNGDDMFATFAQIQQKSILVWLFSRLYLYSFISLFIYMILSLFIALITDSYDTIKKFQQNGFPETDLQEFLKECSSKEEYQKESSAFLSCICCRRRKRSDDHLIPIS
Summary of the method: (§1)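 Compound series (final 6 nM-20 μM, half-log, triplicate) were added to Fluo4-AM-loaded HEK-293 Trex cells in 10 mM calcium Ringer's, expressing the human TRPML subtype after doxycycline 0.5 ug/mL induction. Percent activity versus positive/negative controls from 480/540 nm fluorescence; EC50 by non-linear regression.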

TRPML3 = biological target: T2, TRPML3 (Homo sapiens, UniProt Q8TDD5); assay: Fluorescent TRPML3 assay (performed as for TRPML1, substituting the TRPML3 subtype); format: cell-based
T2 construct: expressed in transfected cells
T2 sequence (Q8TDD5 1-553): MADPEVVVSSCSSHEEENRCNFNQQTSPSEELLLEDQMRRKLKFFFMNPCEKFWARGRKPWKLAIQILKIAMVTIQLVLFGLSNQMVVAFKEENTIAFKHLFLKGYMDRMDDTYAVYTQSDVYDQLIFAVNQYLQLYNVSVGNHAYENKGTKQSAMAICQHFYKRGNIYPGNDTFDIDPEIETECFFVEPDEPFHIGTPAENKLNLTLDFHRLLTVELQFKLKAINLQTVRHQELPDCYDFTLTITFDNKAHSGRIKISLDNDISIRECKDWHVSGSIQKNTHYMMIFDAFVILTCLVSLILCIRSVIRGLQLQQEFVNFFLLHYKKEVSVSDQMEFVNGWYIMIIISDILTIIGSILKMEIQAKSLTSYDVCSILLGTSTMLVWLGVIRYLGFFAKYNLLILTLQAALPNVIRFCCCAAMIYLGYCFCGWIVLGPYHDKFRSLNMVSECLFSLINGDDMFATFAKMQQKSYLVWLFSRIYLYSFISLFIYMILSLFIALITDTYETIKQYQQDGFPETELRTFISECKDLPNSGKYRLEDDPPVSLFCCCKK
Summary of the method: as §1

Chain of TRPML1 (Homo sapiens, UniProt Q9GZU1) (Q9GZU1 whole entry L15A/L16A/L577A/L578A, form open): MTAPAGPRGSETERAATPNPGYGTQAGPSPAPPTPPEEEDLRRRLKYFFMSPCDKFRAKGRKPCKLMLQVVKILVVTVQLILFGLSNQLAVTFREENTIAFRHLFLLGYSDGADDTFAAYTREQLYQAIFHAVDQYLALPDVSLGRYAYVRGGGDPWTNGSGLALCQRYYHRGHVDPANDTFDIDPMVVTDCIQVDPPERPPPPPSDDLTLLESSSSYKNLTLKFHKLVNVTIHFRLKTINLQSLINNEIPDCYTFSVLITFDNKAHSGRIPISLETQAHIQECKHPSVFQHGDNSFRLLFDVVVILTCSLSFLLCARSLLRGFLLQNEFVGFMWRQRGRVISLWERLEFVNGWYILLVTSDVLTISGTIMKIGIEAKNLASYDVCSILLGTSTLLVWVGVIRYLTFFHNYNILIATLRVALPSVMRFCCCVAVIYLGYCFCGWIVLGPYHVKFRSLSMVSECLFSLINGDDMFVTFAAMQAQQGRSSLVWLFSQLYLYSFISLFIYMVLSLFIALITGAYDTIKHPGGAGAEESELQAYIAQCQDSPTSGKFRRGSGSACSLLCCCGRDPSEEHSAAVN

EC50 (TRPML1 [2]) | EC50 (TRPML2) | EC50 (TRPML3) | Compound | [Ca2+] increases (TRPML1 [1]; HEK293 cells stably or transiently expressing TRPML1 with its lysosomal targeting sequence deleted) | concentration needed to effectively activate TRPMLs (TRPML1 [1]; TRPMLs, high concentrations needed)
 |  |  | ML-SA1 | significant [Ca2+] increases | ~10 µM
< 100 nM | < 100 nM | < 100 nM | Cc1cn(-c2cc(C(F)(F)F)ccn2)c2ncnc(N3C[C@@H](C)N(C(=O)OC(C)(C)C)C[C@@H]3C)c12 [Compound 537, tert-butyl (2R,5S)-2,5-dimethyl-4-(5-methyl-7-(4-(trifluoromethyl)pyridin-2-yl)-7H-pyrrolo[2,3-d]pyrimidin-4-yl)piperazine-1-carboxylate] |  | 
< 100 nM | < 100 nM | < 100 nM | CC1CC1c1cn(-c2cccc(C#N)c2)c2ncnc(N3CCN(C(=O)OC(C)(C)C)C[C@@H]3C)c12 (some centres unmarked) [Compound 616] |  | 
